We go through 40 molecules from ChEMBL document CHEMBL2040799, “Exploring the Requirements for the Hydrophobic Scaffold and Polar Amine in inhibitors of M2 from Influenza A Virus” (ACS Med Chem Lett, 2011).

The subject of test [1] is Matrix protein 2 (Influenza A virus), P06821 [V27A]. Description: Inhibition of Influenza A Virus M2 proton channel V27A mutant expressed in Xenopus laevis oocytes at 100 uM after 2 mins by two-electrode patch clamp assay. Conditions: Oocyte. It counts as cell-based.
In test [2] the test system is Matrix protein 2 (Influenza A virus), P06821 [withheld]. As to the kind of experiment: Inhibition of Influenza A Virus M2 proton channel S31N mutant expressed in Xenopus laevis oocytes at 100 uM after 2 mins by two-electrode patch clamp assay. The format is cell-based. Conditions: Oocyte.

A value given as a limit tells only on which side of the number the result lay.

`C1NC2CC3CC1CC(C3)C2`: the inhibition was below 15% in test [1] and 33% in test [2].

Take `O=C1CC2(CCCCC2)CC(=O)N1`: the figures for the inhibition in test [1] and in test [2] were below 15% and 33%, respectively.

Turning to `C1CC2CCC1CNC2`, the inhibition in test [1] was below 15%; in test [2], 33%.

For `CC1(C)C(N)C1(C)C`, the inhibition in test [1] was below 15%; in test [2], 33%.

For the molecule `OC12CC3CC(CC(C3)C1)C2`, the figures for the inhibition in test [1] and in test [2] were below 15% and 33%, respectively.

In the case of `OC1CC2C3CCC(C3)C2C1O` (stereo not given), the inhibition is below 15% in test [1] and 33% in test [2].

As to `OC1C2C3CC4C2C(O)C2C1C3C42` (stereo not given), the results for the inhibition in test [1] and in test [2] were below 15% and 33%, respectively.

On to `NC1C2CC3CC(C2)CC1C3` (stereo not given), for which the inhibition in test [1] was below 15%; in test [2] it was 33%.

Consider `NC(=O)C12CC3CC(CC(C3)C1)C2`, for which the inhibition was below 15% in test [1] and 33% in test [2].

As to `C1CCC2(CC1)CCNCC2`, the figures for the inhibition in test [1] and in test [2] were below 15% and 33%, respectively.

Regarding `N=C(N)NC12CC3CC(CC(C3)C1)C2`, the inhibition in test [1] was below 15%; in test [2], 33%.

In the case of `NC12CC3CCC(CC(C3)C1)C2`, the inhibition in test [1] was below 15%; in test [2], 33%.

For `NOC12CC3CC(CC(C3)C1)C2`, the inhibition in test [1] is below 15%; in test [2] it was 33%.

Turning to `OC1CCC(C2CC3CCC2C3)CC1O` (stereo not given), the results for the inhibition in test [1] and in test [2] were below 15% and 33%, respectively.

For the molecule `NC12CC3CC(C1)CC(CO)(C3)O2`, the inhibition in test [1] was below 15%; in test [2], 33%.

Take `NC1CCC2(CCCCC2)CC1`: the inhibition is below 15% in test [1] and 33% in test [2].

For `NN1CCC2(CCCCC2)CC1`, the inhibition is below 15% in test [1] and 33% in test [2].

For `NNC1CCC2(CCCCC2)CC1`, the inhibition in test [1] was below 15%; in test [2] it was 33%.

Take `C1CC2CC1C1CNC21` (stereo not given): the inhibition in test [1] is below 15%; in test [2] it was 33%.

Turning to `NC1C2C3CC4C1C1C2CC3C41` (stereo not given), the inhibition in test [1] was below 15%; in test [2], 33%.

Consider `OC1C2C3CC4C1C1C2CC3C41` (stereo not given), for which the figures for the inhibition in test [1] and in test [2] were below 15% and 33%, respectively.

As to `N=C(NO)C12CC3CC(CC(C3)C1)C2`, the inhibition is below 15% in test [1] and 33% in test [2].

On to `CC12CC3(O)CC1(C)CC3(O)C2`, for which the inhibition was below 15% in test [1] and 33% in test [2].

For the molecule `NC(CO)C12CC3CC(CC(C3)C1)C2` (stereo not given), the inhibition in test [1] was found to be 4%; in test [2] it was 15%.

`NC1CC2CC1C1CCCC21` (stereo not given): the inhibition was below 15% in test [1] and 33% in test [2].

As to `NC12CC3CC(C1)CC(O)(C3)C2`, the figures for the inhibition in test [1] and in test [2] were below 15% and 33%, respectively.

Take `C1CC2CC1C1CNCC21` (stereo not given): the inhibition in test [1] is below 15%; in test [2] it was 33%.

As for `NC1C2C3CC4C2C(O)C2C1C3C42` (stereo not given), the inhibition was below 15% in test [1] and 33% in test [2].

Regarding `N=C(N)NC(=N)NC12CC3CC(CC(C3)C1)C2`, the values for the inhibition in test [1] and in test [2] were below 15% and 33%, respectively.

As for `N=C(N)NCC12CC3CCC(CC(C3)C1)C2`, the values for the inhibition in test [1] and in test [2] were below 15% and 33%, respectively.

Consider `CC1(O)C2CC3CC(C2)CC1C3` (stereo not given), for which the figures for the inhibition in test [1] and in test [2] were below 15% and 33%, respectively.

As for `CC(C)(C)c1ccc(CN)cc1`, the values for the inhibition in test [1] and in test [2] were below 15% and 33%, respectively.

In the case of `NC12CC3CC(CC(C3)C1)C2`, the inhibition in test [1] was determined as 0%; in test [2], 35%.

With `O=C1C2CC3CC(C2)CC1C3`, the inhibition is below 15% in test [1] and 33% in test [2].

Take `N=C(N)C12CC3CC(CC(C3)C1)C2`: the inhibition in test [1] is below 15%; in test [2], 33%.

On to `O=S(=O)(O)C12CC3CC(CC(C3)C1)C2`, for which the figures for the inhibition in test [1] and in test [2] were below 15% and 33%, respectively.

For `CC(C)(C)CC(C)(C)N`, the inhibition was below 15% in test [1] and 33% in test [2].

For `NC12CCC3CC(CC(C3)C1)C2`, the inhibition is below 15% in test [1] and 33% in test [2].

With `NN1C(=O)CC2(CCCCC2)CC1=O`, the inhibition in test [1] is below 15%; in test [2], 33%.

Take `NC1Cc2ccccc2C1`: the inhibition in test [1] is below 15%; in test [2] it was 33%.
